Data published in patent US20120035076A1, “IRAK KINASE FAMILY AS NOVEL TARGET AND BIOMARKER FOR ALZHEIMER” (Vereniging Voor Christelijk Hoger Onderwijs …, priority 2009, published 2012).

Tests used:
[1] = tested on: IL-6 secretion by U373 astrocytoma cells; assay: IL-1β induced IL-6 secretion by U373 astrocytoma cells (ELISA); assay type: cell-based; conditions: IL-1β 10 U/ml, 6 hours, inhibitor 1250, 2500 or 5000 nM
[2] = tested on: IL-6 secretion by human primary astrocytes; assay: IL-1β induced IL-6 secretion by human primary astrocytes (ELISA); assay type: cell-based; conditions: IL-1β 10 U/ml, 6 hours, inhibitor 1250, 2500 or 5000 nM
Description: IL-1β has been implicated in both the initiation and propagation of neuroinflammatory changes seen in Alzheimer's disease patients. One of the main mechanisms of IL-1β is the induction of interleukin 6 (IL-6) secretion, which propagates the neuroinflammatory response in Alzheimer's disease patients. Using primary human adult astrocytes this inflammatory response as well as modulators (i.e. potential drugs for therapy) can be studied in vitro. […] In the presence of IL-1β (10 U/ml) these cells secrete IL-6 in the culture supernatant, which can be measured by ELISA. […] Cells were incubated with or without IL-1β (10 U/ml) for 6 hours in the presence of different concentration of IRAK1/4 inhibitor I (1250, 2500, or 5000 nM). IL-6 levels (pg/ml) in the culture supernatants were determined by ELISA. Shown are mean levels +/−S.D. of three replicate stimulations.

[3] = FIG. 1, listed as IRAK1/4 inhibitor

Question: With `O=C(Nc1nc2ccccc2n1CCN1CCOCC1)c1cccc([N+](=O)[O-])c1` [IRAK1/4 inhibitor I] as the compound, how does the “IL-6 secretion in culture supernatant” value ([1]; FIG. 1) read?
Answer: dose-dependently inhibits IL-6 secretion

Question: And the “IL-6 secretion in culture supernatant” value [1, 3]?
Answer: reduced

Question: And the “IL-6 secretion in culture supernatant” value ([2]; FIG. 1)?
Answer: dose-dependently inhibits IL-6 secretion

Question: What about the “IL-6 secretion in culture supernatant” value [2, 3] of the same compound?
Answer: reduced
